IC50 data for 26 molecules are collected here from patent publication US8269026B2, “Lupane derivatives useful for treating HIV” (priority 2008, dated 2012).

This experiment relates to HIV-1 (HIVIIIB) replication in MT2 cell line. The experiment is described as follows: HIV-1 replication in MT2 cell line with and without 30% human serum (viral RT activity in supernatant). It is filed as cell-based. The note with it: Human immunodeficiency virus 1, MT2 cells, average IC50 if tested more than once. Summed up: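 MT2 cells infected with HIV-1 IIIB at MOI 0.5 for 3 h, washed, seeded at 0.5×10^6/ml in RPMI/10% FBS with serially diluted compound, with or without 30% human serum; medium and compound refreshed on day 3. RT activity in supernatant at day 5; IC50 and IC90 derived.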

Setting [1] is: with 30% human serum, read-out: MT2 (HIVIIIB) with HS 30% IC50 range.
[2] abbreviates: without human serum, read-out: MT2 (HIVIIIB) IC50 range.

SMILES strings stand for the structures. Like-named read-outs stand apart in the source and are kept apart here.

Regarding `CC(C)C1=C2C3CCC4[C@@]5(C)CC[C@H](OC(=O)CC(C)(C)C(=O)O)C(C)(C)C5CC[C@@]4(C)[C@]3(C)CC[C@@]2(NC(=O)N2CCC(N(C)C(=O)OC(C)(C)C)CC2)CC1=O` (stereo partly drawn) [17-36, 3β-O-(3′,3′-Dimethylsuccinyl)-17β-[(4-(tert-butyloxycarbonyl-methyl-amino)-piperidine-1-carbonyl)-amino]-21-oxolup-18-ene], the concentration for half-maximal inhibition (IC50) under setting [1] was less than 199 nM.
The same measure, in the same setting: for `CC(C)C1=C2[C@H]3CC[C@@H]4[C@@]5(C)CC[C@H](OC(=O)CC(C)(C)C(=O)O)C(C)(C)[C@@H]5CC[C@@]4(C)[C@]3(C)CC[C@@]2(NC(=O)CCN2CCCC2)CC1=O` [19-37, 3β-O-(3′,3′-Dimethylsuccinyl)-17β-(3-pyrrolidin-1-yl-propionamido)-21-oxolup-18-ene] the value was less than 199 nM.
The same measure, in the same setting: next, `Cc1ccc(C(=O)N[C@@]23CC[C@]4(C)C(CCC5[C@@]6(C)CC[C@H](OC(=O)CC(C)(C)C(=O)O)C(C)(C)C6CC[C@]54C)C2=C(C(C)C)C(=O)C3)s1` (stereo partly drawn) [19-77, 3β-O-(3′,3′-Dimethylsuccinyl)-17β-(5-methyl-thiophene-2-amido)-21-oxolup-18-ene]: less than 199 nM.
With `CC(C)C1=C2C3CCC4[C@@]5(C)CC[C@H](OC(=O)CC(C)(C)C(=O)O)C(C)(C)C5CC[C@@]4(C)[C@]3(C)CC[C@@]2(NC(=O)NC2(c3ccccn3)CC2)CC1=O` (stereo partly drawn) [17-69, 3β-O-(3′,3′-Dimethylsuccinyl)-17β-[N′-(1-pyridin-2-yl-cyclopropyl)-ureido]-21-oxolup-18-ene], the IC50 under setting [1] was less than 199 nM.
Regarding `CC(C)C1=C2[C@H]3CC[C@@H]4[C@@]5(C)CC[C@H](OC(=O)CC(C)(C)C(=O)O)C(C)(C)[C@@H]5CC[C@@]4(C)[C@]3(C)CC[C@@]2(NC(=O)c2cn(C)cn2)CC1=O` [19-19, 3β-O-(3′,3′-Dimethylsuccinyl)-17β-(1-methyl-1H-imidazole-4-amido)-21-oxolup-18-ene], the IC50 under setting [1] was less than 199 nM.
Still for that read-out and setting: next, `CC(=O)N1CCC(NC(=O)N[C@@]23CC[C@]4(C)C(CCC5[C@@]6(C)CC[C@H](OC(=O)CC(C)(C)C(=O)O)C(C)(C)C6CC[C@]54C)C2=C(C(C)C)C(=O)C3)CC1` (stereo partly drawn) [17-11, 3β-O-(3′,3′-Dimethylsuccinyl)-17β-[N′-(1-acetyl-piperidin-4-yl)-ureido]-21-oxolup-18-ene]: less than 199 nM; `CC(C)C1=C2C3CCC4[C@@]5(C)CC[C@H](OC(=O)CC(C)(C)C(=O)O)C(C)(C)C5CC[C@@]4(C)[C@]3(C)CC[C@@]2(NC(=O)OC[C@@H]2CCCN2C)CC1=O` (stereo partly drawn) [20-20, 3β-O-(3′,3′-Dimethylsuccinyl)-17β-((S)1-methylpyrrolidine-2-methoxycarbonylamino)-21-oxolup-18-ene]: less than 199 nM.
Still for that read-out and setting: next, `CC(C)C1=C2C3CCC4[C@@]5(C)CC[C@H](OC(=O)CC(C)(C)C(=O)O)C(C)(C)C5CC[C@@]4(C)[C@]3(C)CC[C@@]2(NC(=O)c2nnc(C(C)C)o2)CC1=O` (stereo partly drawn) [19-84, 3β-O-(3′,3′-Dimethylsuccinyl)-17β-(5-isopropyl-[1,3,4]-oxadiazole-2-amido)-21-oxolup-18-ene]: less than 199 nM; `Cc1nnc(NC(=O)N[C@@]23CC[C@]4(C)C(CCC5[C@@]6(C)CC[C@H](OC(=O)CC(C)(C)C(=O)O)C(C)(C)C6CC[C@]54C)C2=C(C(C)C)C(=O)C3)s1` (stereo partly drawn) [17-45, 3β-O-(3′,3′-Dimethylsuccinyl)-17β-(N′-5-methyl-[1,3,4]thiadiazol-2-yl-ureido)-21-oxolup-18-ene]: less than 199 nM; `CC(C)C1=C2C3CCC4[C@@]5(C)CC[C@H](OC(=O)CC(C)(C)C(=O)O)C(C)(C)C5CC[C@@]4(C)[C@]3(C)CC[C@@]2(NC(=O)OC(C)C2CC2)CC1=O` (stereo partly drawn) [20-10, 3β-O-(3′,3′-Dimethylsuccinyl)-17β-(1-cyclopropylethoxycarbonylamino)-21-oxolup-18-ene]: less than 199 nM.
In the case of `CC(C)C1=C2[C@H]3CC[C@@H]4[C@@]5(C)CC[C@H](OC(=O)CC(C)(C)C(=O)O)C(C)(C)[C@@H]5CC[C@@]4(C)[C@]3(C)CC[C@@]2(NC(=O)Cc2ccc(F)cc2)CC1=O` [19-9, 3β-O-(3′,3′-Dimethylsuccinyl)-17β-(4-fluorobenzyl)amido-21-oxolup-18-ene], the half-inhibitory concentration (IC50) is less than 199 nM under setting [1] and less than 199 nM under setting [2].
`CC(C)C1=C2C3CCC4[C@@]5(C)CC[C@H](OC(=O)CC(C)(C)C(=O)O)C(C)(C)C5CC[C@@]4(C)[C@]3(C)CC[C@@]2(NC(=O)NCc2ncccn2)CC1=O` (stereo partly drawn) [17-67, 3β-O-(3′,3′-Dimethylsuccinyl)-17β-[N′-(pyrimidin-2-ylmethyl)ureido]-21-oxolup-18-ene]: under setting [1], the concentration for half-maximal inhibition (IC50) is less than 199 nM.
Consider `CC(C)C1=C2C3CCC4[C@@]5(C)CC[C@H](OC(=O)CC(C)(C)C(=O)O)C(C)(C)C5CC[C@@]4(C)[C@]3(C)CC[C@@]2(NC(=O)N2CC[C@H](NC(=O)OC(C)(C)C)C2)CC1=O` (stereo partly drawn) [17-41, 3β-O-(3′,3′-Dimethylsuccinyl)-17β-[((S)-3-tert-butyloxycarbonylamino-pyrrolidine-1-carbonyl)-amino]-21-oxolup-18-ene], for which the IC50 under setting [1] is less than 199 nM.
In the case of `CC(C)C1=C2C3CCC4[C@@]5(C)CC[C@H](OC(=O)CC(C)(C)C(=O)O)C(C)(C)C5CC[C@@]4(C)[C@]3(C)CC[C@@]2(NC(=O)NC(C)(C)C2CCCCC2)CC1=O` (stereo partly drawn) [17-70, 3β-O-(3′,3′-Dimethylsuccinyl)-17β-[N′-(1-methyl-1-cyclohexyl-ethyl)-ureido]-21-oxolup-18-ene], the half-maximal inhibitory concentration (IC50) under setting [1] was more than 1000 nM.
Same read-out and setting: for `Cc1cc(C(=O)N[C@@]23CC[C@]4(C)[C@H](CC[C@@H]5[C@@]6(C)CC[C@H](OC(=O)CC(C)(C)C(=O)O)C(C)(C)[C@@H]6CC[C@]54C)C2=C(C(C)C)C(=O)C3)ccn1` [19-52, 3β-O-(3′,3′-Dimethylsuccinyl)-17β-(2-methylpyridin-4-yl)amido-21-oxolup-18-ene] the value was less than 199 nM; for `CC(C)C1=C2C3CCC4[C@@]5(C)CC[C@H](OC(=O)CC(C)(C)C(=O)O)C(C)(C)C5CC[C@@]4(C)[C@]3(C)CC[C@@]2(NC(=O)Cc2ccccc2)CC1=O` (stereo partly drawn) [19-29, 3β-O-(3′,3′-Dimethylsuccinyl)-17β-phenylacetamido-21-oxolup-18-ene], less than 199 nM; for `CC(C)C1=C2C3CCC4[C@@]5(C)CC[C@H](OC(=O)CC(C)(C)C(=O)O)C(C)(C)C5CC[C@@]4(C)[C@]3(C)CC[C@@]2(NC(=O)NCc2ccncc2)CC1=O` (stereo partly drawn) [17-31, 3β-O-(3′,3′-Dimethylsuccinyl)-17β-[N′-(pyridin-4-ylmethyl)ureido]-21-oxolup-18-ene], less than 199 nM.
For `Cc1nnc(CNC(=O)N[C@@]23CC[C@]4(C)C(CCC5[C@@]6(C)CC[C@H](OC(=O)CC(C)(C)C(=O)O)C(C)(C)C6CC[C@]54C)C2=C(C(C)C)C(=O)C3)o1` (stereo partly drawn) [17-65, 3β-O-(3′,3′-Dimethylsuccinyl)-17β-[N′-(2-methyl-[1,3,4]oxadiazol-2-ylmethyl)-ureido]-21-oxolup-18-ene], the half-maximal inhibitory concentration (IC50) under setting [1] is less than 199 nM.
Regarding `CC(C)C1=C2C3CCC4[C@@]5(C)CC[C@H](OC(=O)CC(C)(C)C(=O)O)C(C)(C)C5CC[C@@]4(C)[C@]3(C)CC[C@@]2(NC(=O)C(C)N(C)C)CC1=O` (mixture of isomers) [19-59, 3β-O-(3′,3′-Dimethylsuccinyl)-17β-((RS)-2-dimethylamino-propionamido)-21-oxolup-18-ene], the IC50 under setting [1] was less than 199 nM.
The same measure, in the same setting: next, `CC(C)C1=C2C3CCC4[C@@]5(C)CC[C@H](OC(=O)CC(C)(C)C(=O)O)C(C)(C)C5CC[C@@]4(C)[C@]3(C)CC[C@@]2(NC(=O)OCCN2CCCC2)CC1=O` (stereo partly drawn) [20-23, 3β-O-(3′,3′-Dimethylsuccinyl)-17β-(2-pyrrolidin-1-ethoxycarbonylamino)-21-oxolup-18-ene]: less than 199 nM.
Same read-out and setting: next, `CC(C)C1=C2C3CCC4[C@@]5(C)CC[C@H](OC(=O)CC(C)(C)C(=O)O)C(C)(C)C5CC[C@@]4(C)[C@]3(C)CC[C@@]2(NC(=O)N[C@@H](C)C2CCCCC2)CC1=O` (stereo partly drawn) [17-54, 3β-O-(3′,3′-Dimethylsuccinyl)-17β-[N′-((S)-1-cyclohexyl-ethyl)ureido]-21-oxolup-18-ene]: less than 199 nM; `CC(C)C1=C2C3CCC4[C@@]5(C)CC[C@H](OC(=O)CC(C)(C)C(=O)O)C(C)(C)C5CC[C@@]4(C)[C@]3(C)CC[C@@]2(NC(=O)c2nccn2C)CC1=O` (stereo partly drawn) [19-26, 3β-O-(3′,3′-Dimethylsuccinyl)-17β-(1-methyl-1H-imidazole-2-amido)-21-oxolup-18-ene]: less than 199 nM.
The same measure, in the same setting: next, `Cc1nc(C(=O)N[C@@]23CC[C@]4(C)C(CCC5[C@@]6(C)CC[C@H](OC(=O)CC(C)(C)C(=O)O)C(C)(C)C6CC[C@]54C)C2=C(C(C)C)C(=O)C3)no1` (stereo partly drawn) [19-68, 3β-O-(3′,3′-Dimethylsuccinyl)-17β-(5-methyl-[1,2,4]oxadiazole-3-amido)-21-oxolup-18-ene]: less than 199 nM.
For `CC(C)C1=C2C3CCC4[C@@]5(C)CC[C@H](OC(=O)CC(C)(C)C(=O)O)C(C)(C)C5CC[C@@]4(C)[C@]3(C)CC[C@@]2(NC(=O)OC2CCC2)CC1=O` (stereo partly drawn) [20-9, 3β-O-(3′,3′-Dimethylsuccinyl)-17β-cyclobutyloxycarbonylamino-21-oxolup-18-ene], under setting [1], the IC50 was less than 199 nM.
On to `CC(C)C1=C2C3CCC4[C@@]5(C)CC[C@H](OC(=O)CC(C)(C)C(=O)O)C(C)(C)C5CC[C@@]4(C)[C@]3(C)CC[C@@]2(NC(=O)Nc2cccnc2)CC1=O` (stereo partly drawn) [17-6, 3β-O-(3′,3′-Dimethylsuccinyl)-17β-[N′-(pyridin-3-yl)ureido]-21-oxolup-18-ene], for which the half-maximal inhibitory concentration (IC50) under setting [1] is less than 199 nM and the half-inhibitory concentration (IC50) under setting [2] was less than 199 nM.
As for `Cc1nnc(C(=O)N[C@@]23CC[C@]4(C)C(CCC5[C@@]6(C)CC[C@H](OC(=O)CC(C)(C)CC(=O)O)C(C)(C)C6CC[C@]54C)C2=C(C(C)C)C(=O)C3)o1` (stereo partly drawn) [19-75, 3β-O-(3′,3′-Dimethylglutaryl)-17β-(5-methyl-[1,3,4]oxadiazole-2-amido)-21-oxolup-18-ene], the IC50 under setting [1] was less than 199 nM.
